Laboratory results as given in patent US5391540A, “Substituted pyridine compounds” (Rohm and Haas Company, priority 1993, dated 1995).

Experiments:
Type in all cases: in vivo
Barnyardgrass [1] = test: Post-emergence herbicidal activity (Table C); conditions: Bygr, 11.2 kg/ha, 10-14 days
Source text: (§1) In the tests which follow, larger and more developed plants were used.
(§2) The post-emergent herbicidal activity index used in Table C is as follows:
(§3) Top soil was placed in pans having holes in the bottom and compacted to a depth of 0.95 to 1.27 cm. from the top of the pan. A predetermined number of seeds of each of several dicotyledonous and monocotyledonous annual plant species and/or vegetative propagules for the perennial plant species were placed on the soil and pressed into the soil surface. The seeds and/or vegetative propagules were covered with soil and leveled. The pans were then placed on a bench in the greenhouse and watered as needed for germination and growth. After the plants reached the desired age (two to three weeks), each pan (except the control pans) was moved to a spraying chamber and sprayed by means of an atomizer. […] The plant identifying codes in Table C are the same as above defined.

Common Lambsquarters [2] = test: Post-emergence herbicidal activity (Table C); conditions: Colq, 11.2 kg/ha, 10-14 days
Source text: as §1, §2, §3

Downy Brome [3] = test: Post-emergence herbicidal activity (Table C); conditions: Dobr, 11.2 kg/ha, 10-14 days
Source text: (§4) The post-emergent activity is best seen on younger plants treated at the 11/2 to 2 leaf stage. In the tests which follow, larger and more developed plants were used.
as §2
as §3, with “atomizer. The spray solution or suspension contained about 0.4% by volume of an emulsifying agent and a sufficient amount of the candidate chemical to give an application rate of the active ingredient of 11.2 kg/ha while applying a total amount of solution or suspension equivalent to 1870 L/ha.” for “atomizer.”

Pennsylvania Smartweed [4] = test: Post-emergence herbicidal activity (Table C); conditions: Pesw, 11.2 kg/ha, 10-14 days
Source text: as §4, §2
as §3, with “atomizer. The spray solution or suspension contained about 0.4% by volume of an emulsifying agent and a sufficient amount of the candidate chemical to give an application rate of the active ingredient of 11.2 kg/ha while applying a total amount of solution or suspension equivalent to 1870 L/ha.” for “atomizer.”

Cocklebur [5] = test: Post-emergence herbicidal activity (Table C); conditions: Cobu, 11.2 kg/ha, 10-14 days
Source text: as §4, §2
as §3, with “atomizer. The spray solution or suspension contained about 0.4% by volume of an emulsifying agent and a sufficient amount of the candidate chemical to give an application rate of the active ingredient of 11.2 kg/ha while applying a total amount of solution or suspension equivalent to 1870 L/ha.” for “atomizer.”

Velvetleaf [6] = test: Post-emergence herbicidal activity (Table C); conditions: Vele, 11.2 kg/ha, 10-14 days
Source text: as §4, §2
as §3, with “atomizer. The spray solution or suspension contained about 0.4% by volume of an emulsifying agent and a sufficient amount of the candidate chemical to give an application rate of the active ingredient of 11.2 kg/ha while applying a total amount of solution or suspension equivalent to 1870 L/ha.” for “atomizer.”

Quackgrass [7] = test: Post-emergence herbicidal activity (Table C); conditions: Rhqg, 11.2 kg/ha, 10-14 days
Source text: as §4, §2
as §3, with “atomizer. The spray solution or suspension contained about 0.4% by volume of an emulsifying agent and a sufficient amount of the candidate chemical to give an application rate of the active ingredient of 11.2 kg/ha while applying a total amount of solution or suspension equivalent to 1870 L/ha.” for “atomizer.”

Rhizome Johnsongrass [8] = test: Post-emergence herbicidal activity (Table C); conditions: Rhjg, 11.2 kg/ha, 10-14 days
Source text: as §4, §2
as §3, with “atomizer. The spray solution or suspension contained about 0.4% by volume of an emulsifying agent and a sufficient amount of the candidate chemical to give an application rate of the active ingredient of 11.2 kg/ha while applying a total amount of solution or suspension equivalent to 1870 L/ha.” for “atomizer.”

Yellow Nutsedge [9] = test: Post-emergence herbicidal activity (Table C); conditions: Yens, 11.2 kg/ha, 10-14 days
Source text: as §4, §2
as §3, with “atomizer. The spray solution or suspension contained about 0.4% by volume of an emulsifying agent and a sufficient amount of the candidate chemical to give an application rate of the active ingredient of 11.2 kg/ha while applying a total amount of solution or suspension equivalent to 1870 L/ha.” for “atomizer.”

Morningglory [10] = test: Post-emergence herbicidal activity (Table C); conditions: Mogl, 11.2 kg/ha, 10-14 days
Source text: as §4, §2
as §3, with “atomizer. The spray solution or suspension contained about 0.4% by volume of an emulsifying agent and a sufficient amount of the candidate chemical to give an application rate of the active ingredient of 11.2 kg/ha while applying a total amount of solution or suspension equivalent to 1870 L/ha.” for “atomizer.”

Canada thistle [11] = test: Post-emergence herbicidal activity (Table C); conditions: Cath, 11.2 kg/ha, 10-14 days
Source text: as §4, §2
as §3, with “atomizer. The spray solution or suspension contained about 0.4% by volume of an emulsifying agent and a sufficient amount of the candidate chemical to give an application rate of the active ingredient of 11.2 kg/ha while applying a total amount of solution or suspension equivalent to 1870 L/ha.” for “atomizer.”

Downy Brome [12] = test: Pre-emergent herbicidal activity (Table A); conditions: Dobr, 11.2 kg/ha, 10-14 days
Outline: (§5)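 Seeds or vegetative propagules were set on topsoil compacted to 0.95 to 1.27 cm below the pan rim, then covered with soil thoroughly mixed with a known amount of test compound in acetone or water carrier. Ratings follow a scale of percent inhibition per species.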

Pennsylvania Smartweed [13] = test: Pre-emergent herbicidal activity (Table A); conditions: Pesw, 11.2 kg/ha, 10-14 days
Outline: as §5

Cocklebur [14] = test: Pre-emergent herbicidal activity (Table A); conditions: Cobu, 11.2 kg/ha, 10-14 days
Outline: as §5

Velvetleaf [15] = test: Pre-emergent herbicidal activity (Table A); conditions: Vele, 11.2 kg/ha, 10-14 days
Outline: as §5

Barnyardgrass [16] = test: Pre-emergent herbicidal activity (Table A); conditions: Bygr, 11.2 kg/ha, 10-14 days
Outline: as §5

Quackgrass [17] = test: Pre-emergent herbicidal activity (Table A); conditions: Rhqg, 11.2 kg/ha, 10-14 days
Outline: as §5

Common Lambsquarters [18] = test: Pre-emergent herbicidal activity (Table A); conditions: Colq, 11.2 kg/ha, 10-14 days
Outline: as §5

Rhizome Johnsongrass [19] = test: Pre-emergent herbicidal activity (Table A); conditions: Rhjg, 11.2 kg/ha, 10-14 days
Outline: as §5

Yellow Nutsedge [20] = test: Pre-emergent herbicidal activity (Table A); conditions: Yens, 11.2 kg/ha, 10-14 days
Outline: as §5

Morningglory [21] = test: Pre-emergent herbicidal activity (Table A); conditions: Mogl, 11.2 kg/ha, 10-14 days
Outline: as §5

Canada thistle [22] = test: Pre-emergent herbicidal activity (Table A); conditions: Cath, 11.2 kg/ha, 10-14 days
Outline: as §5

3-pyridinecarboxylic acid, 5-(aminocarbonyl)-1,2,3,4-tetrahydro-4-(2-methylpropyl)-6-(pentafluoroethyl)-, ethyl ester [Compound 10]
post-emergent herbicidal activity index (Barnyardgrass [1]): 0 (0-24% inhibition)
post-emergent herbicidal activity index (Common Lambsquarters [2]): 0 (0-24% inhibition)
post-emergent herbicidal activity index (Downy Brome [3]): 0 (0-24% inhibition)
post-emergent herbicidal activity index (Pennsylvania Smartweed [4]): 0 (0-24% inhibition)
post-emergent herbicidal activity index (Cocklebur [5]): 0 (0-24% inhibition)
post-emergent herbicidal activity index (Velvetleaf [6]): 0 (0-24% inhibition)
post-emergent herbicidal activity index (Quackgrass [7]): 0 (0-24% inhibition)
post-emergent herbicidal activity index (Rhizome Johnsongrass [8]): 0 (0-24% inhibition)
post-emergent herbicidal activity index (Yellow Nutsedge [9]): 0 (0-24% inhibition)
post-emergent herbicidal activity index (Morningglory [10]): 0 (0-24% inhibition)
post-emergent herbicidal activity index (Canada thistle [11]): 0 (0-24% inhibition)
herbicidal rating (% inhibition) (Downy Brome [12]): 0 (0-24)
herbicidal rating (% inhibition) (Pennsylvania Smartweed [13]): 0 (0-24)
herbicidal rating (% inhibition) (Cocklebur [14]): 0 (0-24)
herbicidal rating (% inhibition) (Velvetleaf [15]): 0 (0-24)
herbicidal rating (% inhibition) (Barnyardgrass [16]): 0 (0-24)
herbicidal rating (% inhibition) (Quackgrass [17]): 0 (0-24)
herbicidal rating (% inhibition) (Common Lambsquarters [18]): 0 (0-24)
herbicidal rating (% inhibition) (Rhizome Johnsongrass [19]): 0 (0-24)
herbicidal rating (% inhibition) (Yellow Nutsedge [20]): 0 (0-24)
herbicidal rating (% inhibition) (Morningglory [21]): 0 (0-24)
herbicidal rating (% inhibition) (Canada thistle [22]): 0 (0-24)
